Results from patent US11090304B2 (Amgen Inc., priority 2018, dated 2021).

Each compound was assayed against GDP-bound KRAS protein (aa 1-169), containing both G12C and C118A amino acid substitutions (Homo sapiens, UniProt P01116, C118A/G12C) (assay: Coupled nucleotide exchange assay (SOS-mediated, AlphaScreen)). Conditions: 5 min compound pre-incubation.
Format: biochemical

Compound	Coupled exchange IC50 (5 min)
C=CC(=O)N1CCN(c2nc(=O)n(-c3ccccc3C(F)(F)F)c3cc(-c4ccccc4F)c(Cl)cc23)[C@@H](C)C1 [Example 93, 6-Chloro-7-(2-fluorophenyl)-4-((2S)-2-methyl-4-(2-propenoyl)-1-piperazinyl)-1-(2-(trifluoromethyl)phenyl)-2(1H)-quinazolinone]	1.59 | nda μM
C=CC(=O)N1CCN(c2nc(=O)n(-c3c(CC)cccc3CC)c3nc(-c4ccccc4F)c(Cl)cc23)[C@@H](C(=O)O)C1 [Example 96, (2R)-1-(6-Chloro-1-(2,6-diethylphenyl)-7-(2-fluorophenyl)-2-oxo-1,2-dihydropyrido[2,3-d]pyrimidin-4-yl)-4-(2-propenoyl)-2-piperazinecarboxylic acid]	4.85 | nda μM
C=CC(=O)N1CCN(c2nc(=O)n(-c3ccccc3)c3nc(-c4c(O)cccc4F)c(Cl)cc23)[C@@H](C)C1 [Example 100, 6-Chloro-7-(2-fluoro-6-hydroxyphenyl)-4-((2S)-2-methyl-4-(2-propenoyl)-1-piperazinyl)-1-phenylpyrido[2,3-d]pyrimidin-2(1H)-one]	3.45 | nda μM
C=CC(=O)N1CCN(c2nc(=O)n(-c3ccccc3C(C)C)c3nc(-c4ccccc4F)c(CC)nc23)[C@@H](C)C1 [Example 108, 6-Ethyl-7-(2-fluorophenyl)-4-((2S)-2-methyl-4-(2-propenoyl)-1-piperazinyl)-1-(2-(2-propanyl)phenyl)-2(1H)-pteridinone]	1 | nda μM
C=CC(=O)N1CCN(c2nc(=O)n(-c3ccccc3C(C)C)c3nc(-c4ccccc4F)c(OC)nc23)[C@@H](C)C1 [Example 109, 7-(2-Fluorophenyl)-6-methoxy-4-((2S)-2-methyl-4-(2-propenoyl)-1-piperazinyl)-1-(2-(2-propanyl)phenyl)-2(1H)-pteridinone]	1.32 | nda μM
C=CC(=O)N1CCN(c2nc(=O)[nH]c3nc(-c4c(O)cccc4F)c(Cl)cc23)[C@@H](C)C1 [Example 119, 6-Chloro-7-(2-fluoro-6-hydroxyphenyl)-4-((2S)-2-methyl-4-(2-propenoyl)-1-piperazinyl)pyrido[2,3-d]pyrimidin-2(1H)-one]	10.8 | nda μM
C=CC(=O)N1CCC(c2cc(=O)n(CC(C)(C)C)c3nc(-c4ccccc4F)c(Cl)cc23)CC1 [Example 125, 6-Chloro-1-(2,2-dimethylpropyl)-7-(2-fluorophenyl)-4-(1-(2-propenoyl)-4-piperidinyl)-1,8-naphthyridin-2(1H)-one]	35.4 | nda μM
C=CC(=O)N1CCN(c2nc(C(N)=O)c(-c3ccccc3C(C)C)c3nc(-c4ccccc4F)c(Cl)cc23)CC1 [Example 147, 3-Chloro-2-(2-fluorophenyl)-8-(2-(2-propanyl)phenyl)-5-(4-(2-propenoyl)-1-piperazinyl)-1,6-naphthyridine-7-carboxamide]	13.6 | nda μM
C=CC(=O)N1CCN(c2nc(CO)c(C(=O)N3[C@@H](C)CC[C@@H]3C)c3nc(-c4ccccc4F)c(Cl)cc23)CC1 [Example 149, 1-(4-(3-Chloro-8-(((2S,5S)-2,5-dimethyl-1-pyrrolidinyl)carbonyl)-2-(2-fluorophenyl)-7-(hydroxymethyl)-1,6-naphthyridin-5-yl)-1-piperazinyl)-2-propen-1-one]	20.6 | nda μM

The next lines start with the values.

Coupled exchange IC50 (5 min)	Compound
71.1 | nda μM	C=CC(=O)N1CCN(c2cc(=O)n(CC(C)(C)C)c3nc(-c4ccccc4F)ccc23)[C@@H](C)C1 [Example 120, 1-(2,2-Dimethylpropyl)-7-(2-fluorophenyl)-4-((2S)-2-methyl-4-(2-propenoyl)-1-piperazinyl)-1,8-naphthyridin-2(1H)-one]
14.2 | nda μM	C=CC(=O)N1CCN(c2cc(=O)n(CC(C)(C)C)c3nc(-c4ccccc4F)c(Cl)cc23)[C@@H](C)C1 [Example 121, 6-chloro-1-(2,2-dimethylpropyl)-7-(2-fluorophenyl)-4-((2S)-2-methyl-4-(2-propenoyl)-1-piperazinyl)-1,8-naphthyridin-2(1H)-one]
5.29 | nda μM	C=CC(=O)N1CCN(c2cc(=O)n(CC(C)(C)C)c3nc(-c4ccccc4F)c(Cl)cc23)CC1 [Example 122, 6-Chloro-1-(2,2-dimethylpropyl)-7-(2-fluorophenyl)-4-(4-(2-propenoyl)-1-piperazinyl)-1,8-naphthyridin-2(1H)-one]
38.6 | nda μM	C=CC(=O)N1CCN(c2cc(=O)n(CC(C)(C)C)c3nc(-c4ccccc4F)ccc23)CC1 [Example 123, 1-(2,2-Dimethylpropyl)-7-(2-fluorophenyl)-4-(4-(2-propenoyl)-1-piperazinyl)-1,8-naphthyridin-2(1H)-one]
6.22 | nda μM	C=CC(=O)N1CC=C(c2cc(=O)n(CC(C)(C)C)c3nc(-c4ccccc4F)c(Cl)cc23)CC1 [Example 124, 6-Chloro-1-(2,2-dimethylpropyl)-7-(2-fluorophenyl)-4-(1-(2-propenoyl)-1,2,3,6-tetrahydro-4-pyridinyl)-1,8-naphthyridin-2(1H)-one]
27.2 | nda μM	C=CC(=O)N1CCN(c2cc(=O)n(-c3ccccc3C(C)C)c3nc(-c4ccccc4F)ccc23)[C@@H](C)C1 [Example 127, 7-(2-fluorophenyl)-4-((2S)-2-methyl-4-(2-propenoyl)-1-piperazinyl)-1-(2-(2-propanyl)phenyl)-1,8-naphthyridin-2(1H)-one]
1.95 | nda μM	C=CC(=O)N1CCN(c2nc(OC)c(-c3ccccc3C)c3nc(-c4ccccc4F)c(Cl)cc23)[C@@H](C)C1 [Example 134, 1-((3S)-4-(3-Chloro-2-(2-fluorophenyl)-7-methoxy-8-(2-methylphenyl)-1,6-naphthyridin-5-yl)-3-methyl-1-piperazinyl)-2-propen-1-one]
0.497 | nda μM	C=CC(=O)N1CCN(c2nc(=O)n(-c3c(C)ccnc3C(C)C)c3nc(-c4ccccc4F)c(C)nc23)[C@@H](C)C1 [Example 143, 7-(2-Fluorophenyl)-6-methyl-1-(4-methyl-2-(2-propanyl)-3-pyridinyl)-4-((2S)-2-methyl-4-(2-propenoyl)-1-piperazinyl)-2(1H)-pteridinone]
8.31 | nda μM	C=CC(=O)N1CCN(c2nc(C)c(C(=O)N(C(C)C)C(C)C)c3nc(-c4ccccc4F)c(Cl)cc23)CC1 [Example 144, 3-Chloro-2-(2-fluorophenyl)-7-methyl-N,N-di(2-propanyl)-5-(4-(2-propenoyl)-1-piperazinyl)-1,6-naphthyridine-8-carboxamide]
38.7 | nda μM	C=CC(=O)N1CCN(c2nc(C#N)c(-c3ccccc3C(C)C)c3nc(-c4ccccc4F)c(Cl)cc23)CC1 [Example 146, 3-Chloro-2-(2-fluorophenyl)-8-(2-(2-propanyl)phenyl)-5-(4-(2-propenoyl)-1-piperazinyl)-1,6-naphthyridine-7-carbonitrile]

Same assay, conditions: 2 h compound pre-incubation

Coupled exchange IC50 (2 h)	Compound
nda | 3.14 μM	C=CC(=O)N1CCN(c2nc(=O)n(-c3c(CC)cccc3CC)c3nc(-c4c(O)cccc4F)ccc23)[C@@H](C)C1 [Example 107, 1-(2,6-Diethylphenyl)-7-(2-fluoro-6-hydroxyphenyl)-4-((2S)-2-methyl-4-(2-propenoyl)-1-piperazinyl)pyrido[2,3-d]pyrimidin-2(1H)-one]
nda | 18 μM	C=CC(=O)N1CCN(c2nc(=O)n(-c3ccccc3C(F)(F)F)c3cc(Br)c(Cl)cc23)CC1 [Example 128, 7-Bromo-6-chloro-4-(4-(2-propenoyl)-1-piperazinyl)-1-(2-(trifluoromethyl)phenyl)-2(1H)-quinazolinone]

Same assay, conditions: read-out: Coupled exchange IC50 (5 min); 5 min compound pre-incubation

IC50	Compound
39000 nM	C=CC(=O)N1CCN(c2nc(=O)n(-c3ccccc3C(C)C)c3nc(-c4ccc[nH]c4=O)c(Cl)cc23)[C@@H](C)C1 [Example 97, 6-Chloro-4-((2S)-2-methyl-4-(2-propenoyl)-1-piperazinyl)-7-(2-oxo-1,2-dihydro-3-pyridinyl)-1-(2-(2-propanyl)phenyl)pyrido[2,3-d]pyrimidin-(1H)-one]
2920 nM	Mixture of (M)-6-chloro-7-((2R)-2-methyl-1-piperidinyl)-4-((2S)-2-methyl-4-(2-propenoyl)-1-piperazinyl)-1-(2-(2-propanyl)phenyl)pyrido[2,3-d]pyrimidin-2(1H)-one and (M)-6-chloro-7-((2S)-2-methyl-1-piperidinyl)-4-((2S)-2-methyl-4-(2-propenoyl)-1-piperazinyl)-1-(2-(2-propanyl)phenyl)pyrido[2,3-d]pyrimidin-2(1H)-one [Example 115]

These compounds were tested on Phosphorylation of ERK1/2 in MIA PaCa-2 cells (assay: Phospho-ERK1/2 MSD assay in MIA PaCa-2 cells). Conditions: read-out: p-ERK IC50 (2 h; MIA PaCa-2), 2 h compound treatment.
Format: cell-based
Description: For compounds in Table 89, the following assay conditions were employed:
Phospho-ERK1/2 MSD Assay:
Sixteen hours prior to compound treatment, MIA PaCa-2 or A549 cells were seeded in 96-well cell culture plates at a density of 25,000 cells/well and incubated at 37° C., 5% CO2. A compound dose-response titration was diluted in growth media, added to appropriate wells of a cell culture plate, and then incubated at 37° C., 5% CO2 for 2 or 4 hours (see Table 15). Following compound treatment, cells were stimulated with 10 ng/mL EGF (Roche 11376454001) for 10 min, washed with ice-cold Dulbecco's phosphate-buffered saline, no Ca^2+ or Mg^2+ (ThermoFisher Scientific 14190144), and then lysed in RIPA buffer (50 mM Tris-HCl pH 7.5, 1% Igepal, 0.5% sodium deoxycholate, 150 mM NaCl, and 0.5% sodium dodecyl sulfate) containing protease inhibitors (Roche 4693132001) and phosphatase inhibitors (Roche 4906837001). Phosphorylation of ERK1/2 in compound-treated lysates was assayed using Phospho-ERK1/2 Whole Cell Lysate kits (Meso Scale Discovery K151DWD) according to the manufacturer's protocol. Assay plates were read on a Meso Scale Discovery Sector Imager 6000, and data were analyzed using a 4-parameter logistic model to calculate IC50 values.

IC50	Compound
413 nM	C=CC(=O)N1CCN(c2nc(=O)n(-c3c(C(C)C)ccnc3C)c3nc(-c4c(O)cccc4F)c(Cl)cc23)[C@@H](C)C1 (single isomer, unassigned) [Example 54-17-1]
179 nM	C=CC(=O)N1CCN(c2nc(=O)n(-c3c(C)cnn3C(C)C)c3nc(-c4c(O)cccc4F)c(Cl)cc23)[C@@H](C)C1 (single isomer, unassigned) [Example 54-71-2]
45 nM	C=CC(=O)N1CCN(c2nc(=O)n(-c3c(C)cccc3CC)c3nc(-c4c(O)cccc4F)c(Cl)cc23)[C@@H](C)C1 (single isomer, unassigned) [Example 55-8-1]
